The results in this text go back to patent US7259183B2, “Indole, indazole and indoline derivatives as CETP inhibitors” (Hoffmann-La Roche Inc., priority 2004, dated 2007).

The experiment deals with T1, CETP (Homo sapiens, UniProt P11597).
T1 sequence (P11597 18-493): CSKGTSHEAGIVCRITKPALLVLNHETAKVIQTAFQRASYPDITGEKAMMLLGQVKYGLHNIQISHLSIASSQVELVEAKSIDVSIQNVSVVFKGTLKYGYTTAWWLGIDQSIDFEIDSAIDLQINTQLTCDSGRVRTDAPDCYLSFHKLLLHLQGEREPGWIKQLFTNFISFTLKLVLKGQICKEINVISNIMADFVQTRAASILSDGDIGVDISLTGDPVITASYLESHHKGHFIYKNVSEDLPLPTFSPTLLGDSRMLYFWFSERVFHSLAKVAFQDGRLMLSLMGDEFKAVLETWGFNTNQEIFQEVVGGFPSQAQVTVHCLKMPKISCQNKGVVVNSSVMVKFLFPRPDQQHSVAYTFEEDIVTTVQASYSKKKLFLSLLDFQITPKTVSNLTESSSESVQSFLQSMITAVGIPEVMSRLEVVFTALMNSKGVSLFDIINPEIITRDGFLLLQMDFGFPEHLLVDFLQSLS
The experiment can be described thus: CETP inhibition, buffer assay system (SPA, radiolabeled cholesteryl ester transfer from HDL to LDL). The experiment is classed as biochemical. The note with it: partially purified CETP, selected compounds, read-out: 1C50. As to the method: Activity of CETP inhibitors was determined using a buffer assay system. Partially purified CETP transferred radiolabeled cholesteryl ester from HDL donor particles to biotin-labeled LDL acceptor particles. The reaction was stopped by addition of streptavidin-coupled scintillation proximity assay (SPA) beads. These beads captured the biotinylated acceptor particles and transferred radioactivity was measured. The assay system was purchased and performed according to manufacturer's recommendations (Amersham Biosciences). Inhibitory activity of compounds was determined as percentage of positive control activity containing CETP together with donor and acceptor particles. Serial dilution of compounds was performed in order to determine the IC50 values.

Take `CC(C)(C)c1ccc(CN(CCOc2ccc(F)cc2)C(=O)c2cccc3cc[nH]c23)cc1` [Compound 90, 1H-Indole-7-carboxylic acid (4-tert-butyl-benzyl)-[2-(4-fluoro-phenoxy)-ethyl]-amide]: the IC50 turned out to be 202 nM.

With `CC(C)(C)c1ccc(CN(CCc2ccc(F)cc2)C(=O)c2cccc3c2NCC3)cc1` [Compound 76, 2,3-Dihydro-1H-indole-7-carboxylic acid (4-tert-butyl-benzyl)-[2-(4-fluoro-phenyl)-ethyl]-amide], the IC50 was 58 nM.

For `CC(C)CCN(Cc1ccc(C(C)(C)C)cc1)C(=O)c1cccc2cc[nH]c12` [Compound 1, 1H-Indole-7-carboxylic acid (4-tert-butyl-benzyl)-(3-methyl-butyl)-amide], the IC50 was 539 nM.
